Assay results taken from patent US20030065192A1, “Antimicrobial compounds and methods of use” (priority 2001, published 2003).

Columns and labels:
Aspergillus niger 16404 = experiment: High resolution minimum inhibitory concentration (HRMIC) test, A. niger; assay type: cell-based; conditions: for control of fungal organisms (A. niger): result in words; for MIC (ppm) A. niger: ppm active ingredient, M9GY medium, 30° C., 24 hours, average of multiple determinations
Method: (§1) Biological Activity: certain compounds of the present invention were tested for activity against three microorganisms, Escherichia coli 8739 (Gram-negative bacterium) and Staphylococcus aureus 6538 (Gram-positive bacterium) and Aspergillus niger 16404.
(§2) The lowest concentration of test compound required to inhibit Staphylococcus aureus 6538, Escherichia coli 8739 and Aspergillus niger 16404 was determined by a high resolution minimum inhibitory concentration (HRMIC) test. Varying amounts of the test compounds were added to minimal salts glucose medium (see T. Maniatis, E. F. Fritsch and J. Sambrook, Molecular Cloning, p 68 (1982)) supplemented with 0.1% yeast extract (M9GY) in a 96-well microtiter plate. […] serial dilutions were performed on a Biomek™ 2000 Workstation to obtain a range of closely spaced concentrations of test compound as shown in Table 1 (based on dilutions of a 10,000 ppm active ingredient stock solution of the test compound). The plates were inoculated with cell suspension of inoculum and adjusted to provide about 10^6 CFU (colony forming units)/ml in each well. The microtiter plates were incubated at 30° C. for 24 hours and then checked (optical density at 650 nm using a microplate reader) for the presence or absence of microbial growth in each well. […] Data reported (ppm active ingredient) are the average of multiple determinations (see Table 2).

[1] = system: Staphylococcus aureus 6538; experiment: High resolution minimum inhibitory concentration (HRMIC) test, S. aureus; assay type: cell-based; conditions: for MIC (ppm) S. aur: ppm active ingredient, M9GY medium, 30° C., 24 hours, average of multiple determinations
Method: as §1, §2

Escherichia coli 8739 = experiment: High resolution minimum inhibitory concentration (HRMIC) test, E. coli; assay type: cell-based; conditions: ppm active ingredient; M9GY medium, 30° C., 24 hours; average of multiple determinations
Method: as §1, §2

melting point [°C] | SMILES | control of fungal organisms (A. niger) (Aspergillus niger 16404) | MIC (ppm) S. aur [1] [ppm] | better control versus Gram-positive (S. aur) bacteria than compound 6 ([1]; relative to compound 6, from Table 2 MIC) [fold] | MIC (ppm) E. coli (Escherichia coli 8739) [ppm] | MIC (ppm) A. niger (Aspergillus niger 16404) [ppm]
141 to 143 | Cn1sc(Sc2cccc[n+]2[O-])cc1=O [Compound 3, [2-methyl-3-isothiazolon-5-yl]-(1-oxypyridin-2-yl)sulfide] | effective control | – | – | – | –
– | CCCCCCCCn1sc(Sc2cccc[n+]2[O-])c(Cl)c1=O [Compound 5, [4-chloro-2-n-octyl-3-isothiazolon-5-yl]-(1-oxypyridin-2-yl)sulfide] | effective control | 0.9 | 5 | 30 | 10
– | Cn1sc(Sc2nc3ccccc3s2)cc1=O [Compound 6, [2-methyl-3-isothiazolon-5-yl]-(benzothiazol-2′-yl)sulfide, reference compound] | – | 5 | – | >1000 | 15
